Test results as given in PubChem BioAssay (NCI).
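All cell lines were grown in 96-well plates and treated with compound for 48 hours. TGI denotes the concentration required for complete inhibition of growth.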

Assays:
Assay in all cases: NCI-60 cell line screen, 48 h
MCF7 breast = system: MCF7 breast
SN12C renal = system: SN12C renal
SF-268 CNS = system: SF-268 CNS
MALME-3M melanoma = system: MALME-3M melanoma
HOP-62 NSCLC = system: HOP-62 NSCLC
NCI-H460 lung = system: NCI-H460 lung
HCT-15 colon = system: HCT-15 colon
SK-MEL-5 melanoma = system: SK-MEL-5 melanoma
IGROV1 ovarian = system: IGROV1 ovarian
SW-620 colon = system: SW-620 colon
TK-10 renal = system: TK-10 renal
OVCAR-3 ovarian = system: OVCAR-3 ovarian
T-47D breast = system: T-47D breast
BT-549 breast = system: BT-549 breast
PC-3 prostate = system: PC-3 prostate
UACC-257 melanoma = system: UACC-257 melanoma
SF-295 CNS = system: SF-295 CNS
EKVX NSCLC = system: EKVX NSCLC
CAKI-1 renal = system: CAKI-1 renal
SK-OV-3 ovarian = system: SK-OV-3 ovarian
OVCAR-5 ovarian = system: OVCAR-5 ovarian
COLO 205 colon = system: COLO 205 colon
HS 578T breast = system: HS 578T breast
HL-60(TB) leukemia = system: HL-60(TB) leukemia
M14 melanoma = system: M14 melanoma
SK-MEL-2 melanoma = system: SK-MEL-2 melanoma
U251 CNS = system: U251 CNS
MOLT-4 leukemia = system: MOLT-4 leukemia
NCI-H23 lung = system: NCI-H23 lung
SNB-19 CNS = system: SNB-19 CNS
MDA-MB-231 breast = system: MDA-MB-231 breast
CCRF-CEM leukemia = system: CCRF-CEM leukemia
SNB-75 CNS = system: SNB-75 CNS
MDA-MB-435 = system: MDA-MB-435
DU-145 prostate = system: DU-145 prostate
UACC-62 melanoma = system: UACC-62 melanoma
KM12 colon = system: KM12 colon
NCI-H226 lung = system: NCI-H226 lung
MDA-N = system: MDA-N
RXF 393 renal = system: RXF 393 renal
ACHN renal = system: ACHN renal
K-562 leukemia = system: K-562 leukemia
RPMI-8226 leukemia = system: RPMI-8226 leukemia
OVCAR-8 ovarian = system: OVCAR-8 ovarian
SK-MEL-28 melanoma = system: SK-MEL-28 melanoma
UO-31 renal = system: UO-31 renal
SF-539 CNS = system: SF-539 CNS
HT29 colon = system: HT29 colon
A549 NSCLC = system: A549 NSCLC
786-0 renal = system: 786-0 renal
HCT-116 colon = system: HCT-116 colon
LOX IMVI melanoma = system: LOX IMVI melanoma
OVCAR-4 ovarian = system: OVCAR-4 ovarian
HCC-2998 colon = system: HCC-2998 colon
NCI/ADR-RES ovarian = system: NCI/ADR-RES ovarian
SR leukemia = system: SR leukemia
A498 renal = system: A498 renal
NCI-H522 lung = system: NCI-H522 lung
HOP-92 NSCLC = system: HOP-92 NSCLC

CC1=Nc2c(N)nc(N)nc2N(C)C1
TGI (MCF7 breast): > 100 µM
TGI (SN12C renal): > 100 µM
TGI (SF-268 CNS): > 100 µM
TGI (MALME-3M melanoma): > 100 µM
TGI (HOP-62 NSCLC): > 100 µM
TGI (NCI-H460 lung): > 100 µM
TGI (HCT-15 colon): > 100 µM
TGI (SK-MEL-5 melanoma): > 100 µM
TGI (IGROV1 ovarian): > 100 µM
TGI (SW-620 colon): > 100 µM
TGI (TK-10 renal): > 100 µM
TGI (OVCAR-3 ovarian): > 100 µM
TGI (T-47D breast): > 100 µM
TGI (BT-549 breast): > 100 µM
TGI (PC-3 prostate): > 100 µM
TGI (UACC-257 melanoma): > 100 µM
TGI (SF-295 CNS): > 100 µM
TGI (EKVX NSCLC): > 100 µM
TGI (CAKI-1 renal): > 100 µM
TGI (SK-OV-3 ovarian): > 100 µM
TGI (OVCAR-5 ovarian): > 100 µM
TGI (COLO 205 colon): > 100 µM
TGI (HS 578T breast): > 100 µM
TGI (HL-60(TB) leukemia): > 100 µM
TGI (M14 melanoma): > 100 µM
TGI (SK-MEL-2 melanoma): > 100 µM
TGI (U251 CNS): > 100 µM
TGI (MOLT-4 leukemia): > 100 µM
TGI (NCI-H23 lung): > 100 µM
TGI (SNB-19 CNS): > 100 µM
TGI (MDA-MB-231 breast): > 100 µM
TGI (CCRF-CEM leukemia): > 100 µM
TGI (SNB-75 CNS): > 100 µM
TGI (MDA-MB-435): > 100 µM
TGI (DU-145 prostate): > 100 µM
TGI (UACC-62 melanoma): > 100 µM
TGI (KM12 colon): > 100 µM
TGI (NCI-H226 lung): > 100 µM
TGI (MDA-N): > 100 µM
TGI (RXF 393 renal): > 100 µM
TGI (ACHN renal): > 100 µM
TGI (K-562 leukemia): > 100 µM
TGI (RPMI-8226 leukemia): > 100 µM
TGI (OVCAR-8 ovarian): > 100 µM
TGI (SK-MEL-28 melanoma): > 100 µM
TGI (UO-31 renal): > 100 µM
TGI (SF-539 CNS): > 100 µM

COc1ccc(-c2nc3cc(F)ccc3s2)cc1O
TGI (MCF7 breast): > 100 µM
TGI (SN12C renal): > 100 µM
TGI (HT29 colon): > 100 µM
TGI (A549 NSCLC): > 100 µM
TGI (SF-268 CNS): > 100 µM
TGI (MALME-3M melanoma): > 100 µM
TGI (786-0 renal): 55.1 µM
TGI (NCI-H460 lung): > 100 µM
TGI (HCT-15 colon): > 100 µM
TGI (SK-MEL-5 melanoma): 59 µM
TGI (HCT-116 colon): > 100 µM
TGI (LOX IMVI melanoma): 79.3 µM
TGI (OVCAR-4 ovarian): > 100 µM
TGI (IGROV1 ovarian): 81.3 µM
TGI (SW-620 colon): > 100 µM
TGI (TK-10 renal): 70 µM
TGI (OVCAR-3 ovarian): > 100 µM
TGI (T-47D breast): 46.9 µM
TGI (BT-549 breast): 54.1 µM
TGI (PC-3 prostate): > 100 µM
TGI (UACC-257 melanoma): 61.8 µM
TGI (SF-295 CNS): 49 µM
TGI (EKVX NSCLC): 60.8 µM
TGI (CAKI-1 renal): 64 µM
TGI (SK-OV-3 ovarian): > 100 µM
TGI (OVCAR-5 ovarian): > 100 µM
TGI (COLO 205 colon): 94.4 µM
TGI (HL-60(TB) leukemia): 66.1 µM
TGI (M14 melanoma): > 100 µM
TGI (SK-MEL-2 melanoma): 78 µM
TGI (U251 CNS): > 100 µM
TGI (HCC-2998 colon): 12.7 µM
TGI (MOLT-4 leukemia): > 100 µM
TGI (NCI/ADR-RES ovarian): > 100 µM
TGI (NCI-H23 lung): > 100 µM
TGI (SNB-19 CNS): > 100 µM
TGI (MDA-MB-231 breast): > 100 µM
TGI (CCRF-CEM leukemia): > 100 µM
TGI (MDA-MB-435): > 100 µM
TGI (SR leukemia): 47.7 µM
TGI (DU-145 prostate): > 100 µM
TGI (UACC-62 melanoma): > 100 µM
TGI (KM12 colon): > 100 µM
TGI (NCI-H226 lung): > 100 µM
TGI (MDA-N): > 100 µM
TGI (RXF 393 renal): > 100 µM
TGI (ACHN renal): > 100 µM
TGI (K-562 leukemia): > 100 µM
TGI (A498 renal): 66.3 µM
TGI (RPMI-8226 leukemia): 77.1 µM
TGI (NCI-H522 lung): 42.1 µM
TGI (OVCAR-8 ovarian): > 100 µM
TGI (SK-MEL-28 melanoma): > 100 µM
TGI (UO-31 renal): > 100 µM
TGI (SF-539 CNS): > 100 µM

NCc1ccc(O)c(O)c1
TGI (MCF7 breast): > 100 µM
TGI (SN12C renal): > 100 µM
TGI (HT29 colon): > 100 µM
TGI (A549 NSCLC): > 100 µM
TGI (HOP-62 NSCLC): > 100 µM
TGI (786-0 renal): > 100 µM
TGI (NCI-H460 lung): > 100 µM
TGI (HCT-15 colon): > 100 µM
TGI (SK-MEL-5 melanoma): > 100 µM
TGI (HCT-116 colon): > 100 µM
TGI (LOX IMVI melanoma): > 100 µM
TGI (OVCAR-4 ovarian): > 100 µM
TGI (IGROV1 ovarian): > 100 µM
TGI (SW-620 colon): > 100 µM
TGI (OVCAR-3 ovarian): > 100 µM
TGI (T-47D breast): > 100 µM
TGI (BT-549 breast): > 100 µM
TGI (PC-3 prostate): > 100 µM
TGI (UACC-257 melanoma): > 100 µM
TGI (SF-295 CNS): > 100 µM
TGI (EKVX NSCLC): > 100 µM
TGI (CAKI-1 renal): > 100 µM
TGI (SK-OV-3 ovarian): > 100 µM
TGI (OVCAR-5 ovarian): > 100 µM
TGI (COLO 205 colon): > 100 µM
TGI (HL-60(TB) leukemia): 41 µM
TGI (M14 melanoma): > 100 µM
TGI (SK-MEL-2 melanoma): > 100 µM
TGI (U251 CNS): > 100 µM
TGI (HCC-2998 colon): > 100 µM
TGI (MOLT-4 leukemia): > 100 µM
TGI (NCI/ADR-RES ovarian): > 100 µM
TGI (NCI-H23 lung): > 100 µM
TGI (SNB-19 CNS): > 100 µM
TGI (MDA-MB-231 breast): > 100 µM
TGI (CCRF-CEM leukemia): > 100 µM
TGI (SNB-75 CNS): > 100 µM
TGI (MDA-MB-435): > 100 µM
TGI (SR leukemia): > 100 µM
TGI (DU-145 prostate): > 100 µM
TGI (UACC-62 melanoma): > 100 µM
TGI (KM12 colon): > 100 µM
TGI (NCI-H226 lung): > 100 µM
TGI (MDA-N): > 100 µM
TGI (RXF 393 renal): > 100 µM
TGI (ACHN renal): > 100 µM
TGI (K-562 leukemia): > 100 µM
TGI (A498 renal): > 100 µM
TGI (RPMI-8226 leukemia): > 100 µM
TGI (OVCAR-8 ovarian): > 100 µM
TGI (SK-MEL-28 melanoma): > 100 µM
TGI (UO-31 renal): > 100 µM
TGI (SF-539 CNS): > 100 µM
TGI (HOP-92 NSCLC): > 100 µM
